In the assay the target is T1, recombinant GSDMD (human, full-length) (Homo sapiens, UniProt P57764).
T1 sequence (P57764 1-484): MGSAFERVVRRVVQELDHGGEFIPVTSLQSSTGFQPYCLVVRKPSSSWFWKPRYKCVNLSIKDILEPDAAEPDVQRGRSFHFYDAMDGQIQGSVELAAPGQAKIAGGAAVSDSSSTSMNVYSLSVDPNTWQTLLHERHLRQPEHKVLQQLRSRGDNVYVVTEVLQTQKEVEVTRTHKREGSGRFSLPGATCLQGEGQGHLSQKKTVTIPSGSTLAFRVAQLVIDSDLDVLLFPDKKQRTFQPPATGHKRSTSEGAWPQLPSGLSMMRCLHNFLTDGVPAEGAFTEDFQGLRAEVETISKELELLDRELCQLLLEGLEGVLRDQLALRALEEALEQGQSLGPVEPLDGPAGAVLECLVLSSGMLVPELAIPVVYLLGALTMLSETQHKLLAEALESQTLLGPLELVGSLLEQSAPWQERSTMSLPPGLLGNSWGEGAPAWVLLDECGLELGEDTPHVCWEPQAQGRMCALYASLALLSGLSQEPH
The experiment in a line: surface plasmon resonance, Biacore T200. It is filed as binding. For orientation: SPR reads the build-up and loss of mass on a sensor chip optically.

In general, Kd refers to the concentration at which binding is half-saturated. Regarding `COc1nccnc1NS(=O)(=O)c1ccc(NC(=O)/C=C/c2ccc([N+](=O)[O-])s2)cc1` [necrosulfonamide], the Kd is 32 ± 3.8 µM.

For the origin of these results see paper PMC6462819 (Science immunology, 2018).
